From patent US20090176968A1, “Preparation of Triazole Containing Metal Chelating Agents” (PAUL SCHERRER INSTITUT, priority 2006, published 2009)

| SMILES | melting point |
| --- | --- |
| NC(Cc1cn(Cc2ccccc2)nn1)C(=O)O (stereo not drawn) [Compound L1] | > 195 °C (dec.) |
| CCOC(=O)Cn1cc(C[C@H](N)C(=O)O)nn1 [Compound L3] | 272 to 274 °C |
| N[C@@H](Cn1cc(Cc2ccccc2)nn1)C(=O)O [Compound L7] | > 220 °C (dec.) |
